Read-outs that look alike come from different tables or passages of the source.
Legend:
[1] = mouse, in vivo
[2] = test system: AR42j rat pancreatic acinar cells; format: cell-based
[3] = test system: CHO cells expressing a luciferase reporter construct under control of the CHOP promoter; assay: CHOP::luciferase assay; format: cell-based; conditions: 5 μg/ml tunicamycin 6 h; ISRIB 1 μM, GSK2606414 20 μM; n=9
Method: AR42j cells were cultured in DMEM supplemented with 10% Fetal calf serum (FetalClone II, Thermo Scientific, Loughborough, UK), 2 mM l-glutamine, 1 × Penicillin/Streptomycin and 1 × non-essential amino-acid solution and were maintained at 37 °C with 5% CO2. CHO-KI CHOP::luciferase cells were cultured in DMEM/F12(Ham) (Gibco, Paisley, UK) supplemented with 10% Fetal calf serum, 2 mM L-glutamine and 1 × Penicillin/Streptomycin, and were maintained at 37 °C with 5% CO2.
CHO::KI cells stably transfected with a CHOP::luciferase reporter[27] were plated at a density of 1 × 10^5 per well in a six-well plate and left to grow overnight. Cells were treated for 6 h with 5 μg/ml tunicamycin or vehicle only (100% DMSO) and then extracted using the Steady-Glo luciferase assay system (Promega) before being quantified using the Glomax 96 microplate luminometer (Promega). ISRIB and GSK2606414 were incubated with 5 μg/ml tunicamycin for 6 h at 1 or 20 μM, respectively, before assaying as above.

[4] = cited from earlier work
[5] = test system: global protein synthesis rates; conditions: mouse; cited from earlier work
eIF2α-P = test system: eIF2α-P; design: species or system mice; conditions: mouse, in vivo, ip, 0.25 mg/kg
[6] = Plasma and brain concentration of trans-ISRIB by LC-MS/MS after single intraperitoneal injection; format: in vivo; conditions: wild-type mice; for Brain mean ±S.D. / Plasma mean ±S.D.: n=3
Method: We synthesized ISRIB as described,[22] and confirmed penetration of the blood–brain barrier and measured mean brain:plasma ratios at various doses in wild-type mice. Intra-peritoneal administration of 0.25 mg/kg of trans-ISRIB (henceforth termed simply ISRIB), as used by Sidrauski et al.[22] to enhance memory in mice, gave a favorable pharmacokinetic profile (Table 1), so this dose was used for treatment.
Blood and brain tissue were collected 8 or 24 h after dosing from mice treated with one doses of 0.25, 2.5 or 5 mg/kg trans-ISRIB, or vehicle. Blood plasma (up 0.2 ml, exact volume measured) was diluted with water to 0.2 ml and extracted with 0.4 ml of chloroform/methanol 2 : 1. After vortex mixing (10 min) and centrifugation (10 000 g, 10 min), the lower layer was dried with vacuum centrifugation and reconstituted in 50 μl of methanol. Brain tissue (one complete half, about 0.25 g weighed exactly) was homogenized in 0.5 ml of chloroform/methanol 2 : 1 and further processed exactly as the plasma samples. ISRIB quantitative analysis (using external standards) was performed by LC-MS/MS using a 4000 QTRAP mass spectrometer (Applied Biosystems, Foster City, CA, USA) equipped with a turbo ion source and LC series 10 AD VP (Shimadzu). The mobile phase was a water/acetonitrile gradient modified with 0.1% formic acid using a Agilent Poroshell 120 SB-C18 2.1 × 50 mm^2 (2.7 μm), which was maintained at 40 °C. LC-MS/MS multiple reaction monitoring used a precursor ion of mass/charge ratio (m/z) 452 and a product ion of m/z 265 in positive electrospray ionization mode for trans-ISRIB. Data analysis was performed with Analyst 1.4.1 in the quantitative mode.

Solubility (statement) = format: physicochemical
ATF4 = test system: ATF4; design: species or system mice; conditions: mouse, in vivo, ip, 0.25 mg/kg
total PrP and PrP^Sc = test system: total PrP and PrP^Sc; design: species or system mice; conditions: mouse, in vivo
[7] = test system: Rocky Mountain Laboratory (RML) prions; format: in vivo, mice
[8] = test system: global protein synthesis rates; design: species or system mice; conditions: mouse, in vivo, ip, 0.25 mg/kg
[9] = single i.p. dose 0.25 mg/kg, 8 h
[10] = single i.p. dose 0.25 mg/kg, 24 h
[11] = single i.p. dose 2.5 mg/kg, 8 h
[12] = single i.p. dose 2.5 mg/kg, 24 h
[13] = prion-infected mice, ISRIB 0.25 mg/kg i.p. daily from 7 w.p.i., vehicle 9/9

With `Cn1cc(-c2ccc3c(c2)CCN3C(=O)Cc2cccc(C(F)(F)F)c2)c2c(N)ncnc21` [GSK2606414, 7-methyl-5-(1-{[3-(trifluoromethyl)phenyl]acetyl}-2,3-dihydro-1H-indol-5-yl)-7H-p yrrolo[2,3-d]pyrimidin-4-amine] the “reduction in pancreatic weight” value ([1]; Tg37+/-, po, 50 mg/kg) was ~ 50%, the blood glucose levels [1] was “mildly but significantly elevated” and the “pancreas histology (H&E sections)” value [1] was “extensive destruction of exocrine acinar pancreatic tissue”. The “protein synthesis (translation) rates restored in vitro, % of control levels” value ([2]; thapsigargin-treated AR42j cells, Figures 6a and b) was 90%, the “tunicamycin-induced CHOP induction (relative luminescence)” value [3] was “completely inhibited” and the “toxicity of GSK2606414 treatment in prion-diseased mice” value [4] was “weight loss and mild hyperglycemia”. For the same molecule, the “recovery of protein synthesis rates in vivo” value [5] was ~ 100%.

With `O=C(COc1ccc(Cl)cc1)N[C@H]1CC[C@H](NC(=O)COc2ccc(Cl)cc2)CC1` [ISRIB] the blood glucose levels [1] was “unaffected”, the “loss of body weight at which animals had to be killed” value [1] was 20% and the “pancreas histology (H&E sections)” value [1] was “histologically normal”. The pancreatic weights [1] was “normal”, the “protein synthesis (translation) rates restored in vitro, % of control levels” value [2] was ~ 50% and the “eIF2α-P levels (hippocampus)” value (eIF2α-P) was “unchanged”. For the same molecule, the “Mean ratio brain: plasma” value [6, 9] was 0.54, the “Brain mean ±S.D.” value [6, 9] was 186.9 ± 46.8 ng/g and the “Plasma mean ±S.D.” value [6, 9] was 345.3 ± 44.7 ng/mL. For the same molecule, the “Mean ratio brain: plasma” value [6, 10] was 1.62, the “Brain mean ±S.D.” value [6, 10] was 16.0 ± 1.6 ng/g and the “Plasma mean ±S.D.” value [6, 10] was 9.9 ± 1.0 ng/mL. For the same molecule, the “Mean ratio brain: plasma” value [6, 11] was 0.35, the “Brain mean ±S.D.” value [6, 11] was 254.6 ± 70.3 ng/g and the “Plasma mean ±S.D.” value [6, 11] was 721.6 ± 60.1 ng/mL. The “Mean ratio brain: plasma” value [6, 12] was 0.9, the “Brain mean ±S.D.” value [6, 12] was 39.7 ± 12.6 ng/g and the “Plasma mean ±S.D.” value [6, 12] was 44.1 ± 11.6 ng/mL. For the same molecule, the “Mean ratio brain: plasma” value ([6]; single i.p. dose 5 mg/kg, 8 h) was 0.43, the “Brain mean ±S.D.” value ([6]; single i.p. dose 5 mg/kg, 8 h) was 160.3 ± 17.6 ng/g and the “Plasma mean ±S.D.” value ([6]; single i.p. dose 5 mg/kg, 8 h) was 369.7 ± 114.4 ng/mL. The “Mean ratio brain: plasma” value ([6]; single i.p. dose 5 mg/kg, 24 h) was 0.91, the “Brain mean ±S.D.” value ([6]; single i.p. dose 5 mg/kg, 24 h) was 64.6 ± 9.2 ng/g and the “Plasma mean ±S.D.” value ([6]; single i.p. dose 5 mg/kg, 24 h) was 70.9 ± 30.6 ng/mL. For the same molecule, the “tunicamycin-induced CHOP induction (relative luminescence)” value [3] was “only partially reduced”, the solubility (Solubility (statement)) was “high insolubility” and the “levels of ATF4 (hippocampus)” value (ATF4) was “reduced levels of ATF4 markedly”. The “levels of total PrP and PrP^Sc” value (total PrP and PrP^Sc) was “does not affect”, the “animals that developed confirmatory signs of prion disease by 12 w.p.i.” value ([7]; clinical observation, vehicle 9/9) was 0/12 and the “survival in prion-infected mice” value ([7]; n=12, vehicle 84±3 days (n=9), killed because of loss of 20% of body weight) was 96±4 days post infection. For the same molecule, the “Confirmatory signs: Dragging of limbs (front/hind) (mice affected/total)” value ([7]; prion-infected mice, ISRIB 0.25 mg/kg i.p. daily from 7 w.p.i., vehicle 2/9) was 0/12, the “Confirmatory signs: Sustained hunched posture (mice affected/total)” value ([7]; prion-infected mice, ISRIB 0.25 mg/kg i.p. daily from 7 w.p.i., vehicle 3/9) was 0/12 and the “Early indicator signs: Unsustained hunched posture (mice affected/total)” value ([7]; prion-infected mice, ISRIB 0.25 mg/kg i.p. daily from 7 w.p.i., vehicle 4/9) was 0/12. The “Confirmatory signs: Impairment of righting reflex (mice affected/total)” value ([7]; prion-infected mice, ISRIB 0.25 mg/kg i.p. daily from 7 w.p.i., vehicle 5/9) was 0/12, the “Early indicator signs: Hind limb clasping (mice affected/total)” value ([7]; prion-infected mice, ISRIB 0.25 mg/kg i.p. daily from 7 w.p.i., vehicle 8/9) was 7/12 and the “Early indicator signs: Mild loss of coordination (mice affected/total)” value [7, 13] was 7/12. The “Early indicator signs: Rigid tail (mice affected/total)” value [7, 13] was 7/12, the “Scrapie incubation: Number of animals succumbing to prion disease” value [7, 13] was 0/12 and the “neuronal loss in the hippocampus (neuropathological examination, H&E)” value ([7]; prion-infected mice, ISRIB vs vehicle) was “prevented neuronal loss”. The “global protein synthesis rates, % of levels seen in uninfected controls” value [8] was ~ 70%.

— paper PMC4385927 (Cell Death & Disease, 2015)
